Test results taken from ChEMBL document CHEMBL1201862, “PubChem BioAssay data set” (2004).
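Five compound concentrations were applied to cells in 96-well plates for 48 hours; endpoints were derived by simple linear interpolation of the resulting dose-response curve. At the GI50, growth is halved.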 The source made the active and inactive calls. No stated cut-off is given here; in the data, active = GI50 up to about 1.1 µM and inactive = higher.

Assays:
Assay in all cases: NCI tumour cell line growth inhibition, 48 h
SW-620 = test system: SW-620
RXF 393 = test system: RXF 393
HT-29 = test system: HT-29
MOLT-4 = test system: MOLT-4
U-251 = test system: U-251
786-0 = test system: 786-0
HCC 2998 = test system: HCC 2998
MCF7 = test system: MCF7
MDA-MB-231 = test system: MDA-MB-231
SF-295 = test system: SF-295
Malme-3M = test system: Malme-3M
NCI-H522 = test system: NCI-H522
K562 = test system: K562
SK-MEL-5 = test system: SK-MEL-5
KM12 = test system: KM12
MDA-N = test system: MDA-N
SNB-75 = test system: SNB-75
NCI-H226 = test system: NCI-H226
OVCAR-8 = test system: OVCAR-8
SR = test system: SR

| SMILES | GI50 (SW-620) | GI50 (RXF 393) | GI50 (HT-29) | GI50 (MOLT-4) | GI50 (U-251) | GI50 (786-0) | GI50 (HCC 2998) | GI50 (MCF7) | GI50 (MDA-MB-231) | GI50 (SF-295) | GI50 (Malme-3M) | GI50 (NCI-H522) | GI50 (K562) | GI50 (SK-MEL-5) | GI50 (KM12) | GI50 (MDA-N) | GI50 (SNB-75) | GI50 (NCI-H226) | GI50 (OVCAR-8) | GI50 (SR) |
| --- | --- | --- | --- | --- | --- | --- | --- | --- | --- | --- | --- | --- | --- | --- | --- | --- | --- | --- | --- | --- |
| CCCCCCCCCC(=O)CC(=O)c1c(O)cc(O)cc1O | 25.6 µM (inactive) | 11.7 µM (inactive) | 17.1 µM (inactive) | 12.9 µM (inactive) | 23.8 µM (inactive) | 28 µM (inactive) | 18.8 µM (inactive) | 39.1 µM (inactive) | 28.6 µM (inactive) | 25.9 µM (inactive) | 14.4 µM (inactive) | 20.2 µM (inactive) | 15.2 µM (inactive) | 15.3 µM (inactive) | 18.1 µM (inactive) | 16.9 µM (inactive) | 22.2 µM (inactive) | 16.2 µM (inactive) | 17.3 µM (inactive) | – |
| CC1=NN(c2nc(N)nc(CSc3cc(Cl)c(C)cc3S(N)(=O)=O)n2)C(C)(C)C1 | > 10 µM (inactive) | > 10 µM (inactive) | > 10 µM (inactive) | > 10 µM (inactive) | > 10 µM (inactive) | > 10 µM (inactive) | > 10 µM (inactive) | > 10 µM (inactive) | > 10 µM (inactive) | > 10 µM (inactive) | > 10 µM (inactive) | > 10 µM (inactive) | > 10 µM (inactive) | > 10 µM (inactive) | > 10 µM (inactive) | > 10 µM (inactive) | > 10 µM (inactive) | > 10 µM (inactive) | > 10 µM (inactive) | – |
| CCCNc1ncnc2c1ncn2C | 94.4 µM (inactive) | > 100 µM (inactive) | – | 45.3 µM (inactive) | > 100 µM (inactive) | 48.8 µM (inactive) | 78.7 µM (inactive) | 53.6 µM (inactive) | 67.1 µM (inactive) | 40.6 µM (inactive) | 45.3 µM (inactive) | 41.8 µM (inactive) | 53.1 µM (inactive) | > 100 µM (inactive) | > 100 µM (inactive) | > 100 µM (inactive) | 38.5 µM (inactive) | > 100 µM (inactive) | 48.5 µM (inactive) | – |
| COC(=O)c1ccccc1C#CCCCOS(C)(=O)=O | > 10 µM (inactive) | > 10 µM (inactive) | > 10 µM (inactive) | > 10 µM (inactive) | > 10 µM (inactive) | > 10 µM (inactive) | > 10 µM (inactive) | > 10 µM (inactive) | > 10 µM (inactive) | > 10 µM (inactive) | > 10 µM (inactive) | – | > 10 µM (inactive) | > 10 µM (inactive) | > 10 µM (inactive) | > 10 µM (inactive) | – | > 10 µM (inactive) | > 10 µM (inactive) | > 10 µM (inactive) |
| CN(C)c1ccc(C=C2N=C(c3ccccc3)N(c3cc(C(=O)c4ccccc4)ccc3N3C(=O)/C(=C/c4ccc(N(C)C)cc4)N=C3c3ccccc3)C2=O)cc1 | 5.32 µM (inactive) | – | 4.28 µM (inactive) | 3.38 µM (inactive) | 3.67 µM (inactive) | 6.17 µM (inactive) | 3.76 µM (inactive) | 3.33 µM (inactive) | 14.1 µM (inactive) | 3.76 µM (inactive) | – | – | 3.95 µM (inactive) | 3.42 µM (inactive) | 3.71 µM (inactive) | 2.16 µM (inactive) | 4.78 µM (inactive) | – | 11.5 µM (inactive) | 3.3 µM (inactive) |
| COc1cc(N(CCC#N)CCC#N)ccc1C(/N=N/c1cccc([N+](=O)[O-])c1)=N\NC(=O)c1ccc(C)cc1 | > 100 µM (inactive) | > 100 µM (inactive) | 92 µM (inactive) | 16.9 µM (inactive) | > 100 µM (inactive) | > 100 µM (inactive) | 26 µM (inactive) | 45 µM (inactive) | > 100 µM (inactive) | > 100 µM (inactive) | > 100 µM (inactive) | 26.5 µM (inactive) | 73.5 µM (inactive) | 59 µM (inactive) | > 100 µM (inactive) | 84.5 µM (inactive) | – | > 100 µM (inactive) | 89.5 µM (inactive) | – |
| O=C(NNCC(O)COc1ccccc1)c1ccccc1 (centres undefined) | > 100 µM (inactive) | > 100 µM (inactive) | > 100 µM (inactive) | > 100 µM (inactive) | > 100 µM (inactive) | > 100 µM (inactive) | > 100 µM (inactive) | > 100 µM (inactive) | > 100 µM (inactive) | > 100 µM (inactive) | > 100 µM (inactive) | > 100 µM (inactive) | > 100 µM (inactive) | 42 µM (inactive) | > 100 µM (inactive) | > 100 µM (inactive) | > 100 µM (inactive) | > 100 µM (inactive) | > 100 µM (inactive) | – |
| N=C(/C=C/c1ccc(-c2cn3cc(/C=C/C(=N)N4CCOCC4)ccc3n2)cc1)N1CCOCC1 | > 100 µM (inactive) | > 100 µM (inactive) | – | – | > 100 µM (inactive) | > 100 µM (inactive) | > 100 µM (inactive) | 94 µM (inactive) | > 100 µM (inactive) | > 100 µM (inactive) | > 100 µM (inactive) | 62.8 µM (inactive) | > 100 µM (inactive) | > 100 µM (inactive) | > 100 µM (inactive) | > 100 µM (inactive) | > 100 µM (inactive) | > 100 µM (inactive) | > 100 µM (inactive) | – |
| Nc1c(S(N)(=O)=O)cc(S(N)(=O)=O)cc1S(N)(=O)=O | > 100 µM (inactive) | > 100 µM (inactive) | > 100 µM (inactive) | > 100 µM (inactive) | > 100 µM (inactive) | > 100 µM (inactive) | > 100 µM (inactive) | > 100 µM (inactive) | > 100 µM (inactive) | > 100 µM (inactive) | > 100 µM (inactive) | > 100 µM (inactive) | > 100 µM (inactive) | > 100 µM (inactive) | > 100 µM (inactive) | > 100 µM (inactive) | > 100 µM (inactive) | > 100 µM (inactive) | > 100 µM (inactive) | – |
| O=C1CC(=O)n2cnc3cccc(c32)N1 | > 100 µM (inactive) | > 100 µM (inactive) | > 100 µM (inactive) | – | > 100 µM (inactive) | > 100 µM (inactive) | – | > 100 µM (inactive) | > 100 µM (inactive) | > 100 µM (inactive) | > 100 µM (inactive) | – | > 100 µM (inactive) | > 100 µM (inactive) | > 100 µM (inactive) | > 100 µM (inactive) | > 100 µM (inactive) | > 100 µM (inactive) | > 100 µM (inactive) | > 100 µM (inactive) |
| CC1(C)SCc2nc3ccccc3n21 | > 100 µM (inactive) | > 100 µM (inactive) | > 100 µM (inactive) | > 100 µM (inactive) | > 100 µM (inactive) | > 100 µM (inactive) | > 100 µM (inactive) | > 100 µM (inactive) | > 100 µM (inactive) | > 100 µM (inactive) | > 100 µM (inactive) | > 100 µM (inactive) | > 100 µM (inactive) | > 100 µM (inactive) | > 100 µM (inactive) | > 100 µM (inactive) | 0.0119 µM (active) | 89.9 µM (inactive) | > 100 µM (inactive) | – |
